The target in the first assay is T1, F508del (Homo sapiens, UniProt P13569, DEL508-508).
T1 construct: expressed in transfected cells
T1 sequence (P13569 with tags, fused parts or gaps DEL508-508): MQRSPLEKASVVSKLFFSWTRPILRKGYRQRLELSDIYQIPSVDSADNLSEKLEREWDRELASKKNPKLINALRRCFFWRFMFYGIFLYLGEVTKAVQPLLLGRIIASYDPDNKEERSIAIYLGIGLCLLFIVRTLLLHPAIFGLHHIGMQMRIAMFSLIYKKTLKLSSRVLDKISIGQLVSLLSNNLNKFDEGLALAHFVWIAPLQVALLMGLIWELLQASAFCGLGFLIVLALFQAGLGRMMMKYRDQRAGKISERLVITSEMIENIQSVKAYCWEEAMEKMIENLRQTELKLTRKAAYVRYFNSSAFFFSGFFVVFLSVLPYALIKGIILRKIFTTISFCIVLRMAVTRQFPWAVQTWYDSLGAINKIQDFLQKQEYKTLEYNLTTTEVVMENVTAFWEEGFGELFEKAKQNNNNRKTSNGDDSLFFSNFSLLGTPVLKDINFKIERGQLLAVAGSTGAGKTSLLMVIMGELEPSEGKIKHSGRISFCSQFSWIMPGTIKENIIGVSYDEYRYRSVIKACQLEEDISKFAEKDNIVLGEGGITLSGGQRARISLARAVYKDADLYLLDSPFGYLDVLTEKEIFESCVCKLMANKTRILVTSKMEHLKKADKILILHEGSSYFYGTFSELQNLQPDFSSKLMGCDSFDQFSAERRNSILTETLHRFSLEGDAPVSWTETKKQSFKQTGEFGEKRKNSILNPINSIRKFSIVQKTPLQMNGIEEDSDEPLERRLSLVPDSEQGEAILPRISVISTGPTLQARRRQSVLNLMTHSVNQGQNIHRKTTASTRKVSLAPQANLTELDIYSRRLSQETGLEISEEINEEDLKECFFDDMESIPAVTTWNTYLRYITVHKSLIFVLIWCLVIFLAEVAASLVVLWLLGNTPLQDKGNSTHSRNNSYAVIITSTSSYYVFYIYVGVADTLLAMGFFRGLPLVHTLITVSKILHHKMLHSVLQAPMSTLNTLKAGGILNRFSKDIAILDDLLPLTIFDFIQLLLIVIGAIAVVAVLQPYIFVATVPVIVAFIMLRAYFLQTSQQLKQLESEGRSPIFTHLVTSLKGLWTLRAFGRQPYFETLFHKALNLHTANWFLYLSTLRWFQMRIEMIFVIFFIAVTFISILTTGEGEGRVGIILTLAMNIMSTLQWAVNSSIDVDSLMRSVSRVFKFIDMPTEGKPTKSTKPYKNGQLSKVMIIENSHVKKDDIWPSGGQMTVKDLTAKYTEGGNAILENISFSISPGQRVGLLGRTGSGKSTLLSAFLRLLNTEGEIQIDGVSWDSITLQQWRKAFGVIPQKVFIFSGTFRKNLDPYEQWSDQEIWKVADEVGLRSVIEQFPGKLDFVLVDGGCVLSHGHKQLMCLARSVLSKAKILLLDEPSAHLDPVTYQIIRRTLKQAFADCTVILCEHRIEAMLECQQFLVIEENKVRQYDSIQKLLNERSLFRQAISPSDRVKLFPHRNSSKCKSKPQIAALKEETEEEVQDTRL
Briefly: Protocol 2: FRET membrane potential optical assay (VIPR), identification of correction compounds. Type of assay: cell-based. Conditions: F508del CFTR modulator activity; compounds of Table 1; read-out: EC30. In short, it runs like this: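 NIH3T3 mouse fibroblasts stably expressing F508del-CFTR incubated with compound 16 h at 37 °C in serum-free medium, then loaded with CC2-DMPE/DiSBAC2(3) FRET dyes. Channel activated with 10 μM forskolin plus 20 μM genistein in Cl⁻-free (gluconate) bath; depolarisation from Cl⁻ efflux read on VIPR II.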
For orientation: EC30 means the concentration needed for an effect of 30%. As to `COc1cccc(-c2ccc(C(=O)NS(=O)(=O)c3cccnc3N)c(N3C[C@@H](C)CC3(C)C)n2)c1` [Compound 2164, N-[(2-amino-3-pyridyl)sulfonyl]-6-(3-methoxyphenyl)-2-[(4S)-2,2,4-trimethylpyrrolidin-1-yl]pyridine-3-carboxamide], the EC30 was below 3 µM.
As to `CCOc1ccc(CCNc2cccc(S(=O)(=O)NC(=O)c3cccnc3N3CC(C)CC3(C)C)n2)cc1` (centres unmarked) [Compound 2642, N—[[6-[2-(4-ethoxyphenyl)ethylamino]-2-pyridyl]sulfonyl]-2-(2,2,4-trimethylpyrrolidin-1-yl)pyridine-3-carboxamide], the concentration for an effect of 30% (EC30) is below 3 µM.
Regarding `C[C@@H]1CN(c2nc(-n3ccc(OCC(C)(C)C)n3)ccc2C(=O)NS(=O)(=O)c2cccnc2N2CCCCC2)C(C)(C)C1` [Compound 2670, 6-[3-(2,2-dimethylpropoxy)pyrazol-1-yl]-N-[[2-(1-piperidyl)-3-pyridyl]sulfonyl]-2-[(4S)-2,2,4-trimethylpyrrolidin-1-yl]pyridine-3-carboxamide], the EC30 is below 3 µM.
For the compound `CC(C)COc1cc(F)cc(-c2ccc(C(=O)NS(=O)(=O)N3CC(C)(O)C3)c(N3C[C@@H](C)CC3(C)C)n2)c1` [Compound 2398, 6-(3-fluoro-5-isobutoxy-phenyl)-N-(3-hydroxy-3-methyl-azetidin-1-yl)sulfonyl-2-[(4S)-2,2,4-trimethylpyrrolidin-1-yl]pyridine-3-carboxamide], the concentration for an effect of 30% (EC30) was below 3 µM.
For the compound `CC1CN(c2ncccc2C(=O)NS(=O)(=O)c2cccc(N3CCOC(C)C3)n2)C(C)(C)C1` (centres unmarked) [Compound 2324, N—[[6-(2-methylmorpholin-4-yl)-2-pyridyl]sulfonyl]-2-(2,2,4-trimethylpyrrolidin-1-yl)pyridine-3-carboxamide], the EC30 was in the range of 3 to 10 µM.
On to `COc1cccc(OC)c1Oc1cccc(S(=O)(=O)NC(=O)c2cccnc2N2CC(C)CC2(C)C)n1` (centres unmarked) [Compound 2309, N—[[6-(2,6-dimethoxyphenoxy)-2-pyridyl]sulfonyl]-2-(2,2,4-trimethylpyrrolidin-1-yl)pyridine-3-carboxamide], for which the EC30 was below 3 µM.
Take `CC1CN(c2ncccc2C(=O)NS(=O)(=O)c2cccc(OC3CCC3)n2)C(C)(C)C1` (centres unmarked) [Compound 2371, N—[[6-(cyclobutoxy)-2-pyridyl]sulfonyl]-2-(2,2,4-trimethylpyrrolidin-1-yl)pyridine-3-carboxamide]: the EC30 was below 3 µM.
Consider `CCC(CC)CNc1cccc(S(=O)(=O)NC(=O)c2cccnc2N2CC(C)CC2(C)C)n1` (centres unmarked) [Compound 2305, N—[[6-(2-ethylbutylamino)-2-pyridyl]sulfonyl]-2-(2,2,4-trimethylpyrrolidin-1-yl)pyridine-3-carboxamide], for which the EC30 is below 3 µM.
As for `Cc1ccnc(Nc2cccc(S(=O)(=O)NC(=O)c3cccnc3N3CC(C)CC3(C)C)n2)c1` (centres unmarked) [Compound 2082, N—[[6-[(4-methyl-2-pyridyl)amino]-2-pyridyl]sulfonyl]-2-(2,2,4-trimethylpyrrolidin-1-yl)pyridine-3-carboxamide], the EC30 lay in the range of 3 to 10 µM.
In the case of `CCOc1cc(C)cc(-c2ccc(C(=O)NS(=O)(=O)c3cccnc3N)c(N3C[C@@H](C)CC3(C)C)n2)n1` [Compound 2256, N-[(2-amino-3-pyridyl)sulfonyl]-6-(6-ethoxy-4-methyl-2-pyridyl)-2-[(4S)-2,2,4-trimethylpyrrolidin-1-yl]pyridine-3-carboxamide], the 30% effect concentration (EC30) is below 3 µM.
Turning to `CC1CN(c2ncccc2C(=O)NS(=O)(=O)c2cccc(NCCc3ccccn3)n2)C(C)(C)C1` (centres unmarked) [Compound 2359, N—[[6-[2-(2-pyridyl)ethylamino]-2-pyridyl]sulfonyl]-2-(2,2,4-trimethylpyrrolidin-1-yl)pyridine-3-carboxamide], the EC30 fell in the range of 3 to 10 µM.
On the same count and under the same terms, the result for `COc1ccc(-c2ccc(C(=O)NS(=O)(=O)c3ccc[nH]c3=O)c(N3C[C@@H](C)CC3(C)C)n2)cc1` [Compound 2080, 6-(4-methoxyphenyl)-N-[(2-oxo-1H-pyridin-3-yl)sulfonyl]-2-[(4S)-2,2,4-trimethylpyrrolidin-1-yl]pyridine-3-carboxamide] reads 3 to 10 µM; that for `Cc1ccc(F)cc1-c1ccc(C(=O)NS(=O)(=O)c2ccc[nH]c2=O)c(N2C[C@@H](C)CC2(C)C)n1` [Compound 2067, 6-(5-fluoro-2-methyl-phenyl)-N-[(2-oxo-1H-pyridin-3-yl)sulfonyl]-2-[(4S)-2,2,4-trimethylpyrrolidin-1-yl]pyridine-3-carboxamide], below 3 µM.

The assay is the same for the next values; noted with them: Table 3; compounds of Table 1 as modulators of CFTR activity; protocol not stated.
As for `Cc1cc(C)c(Cn2c(C(=O)NS(=O)(=O)c3cccc(N)c3)cc3c(C)cccc32)c(C)c1` [Compound 144, N-(3-aminophenyl)sulfonyl-4-methyl-1-[(2,4,6-trimethylphenyl)methyl]indole-2-carboxamide], the EC30 result is listed as “+++ (“+++” means <3 uM)”.
Turning to `COc1ncccc1S(=O)(=O)NC(=O)c1cc(C(C)(C)C)nn1Cc1c(C)cc(C)cc1C` [Compound 759, 5-tert-butyl-N-[(2-methoxy-3-pyridyl)sulfonyl]-2-[(2,4,6-trimethylphenyl)methyl]pyrazole-3-carboxamide], the EC30 result is “+++ (“+++” means <3 uM)”.
Regarding `CC(C)COc1cc(F)cc(-c2ccc(C(=O)NS(=O)(=O)c3ccn[nH]3)c(N3CCC(F)CC3)n2)c1` [Compound 728, 6-(3-fluoro-5-isobutoxy-phenyl)-2-(4-fluoro-1-piperidyl)-N-(1H-pyrazol-5-ylsulfonyl)pyridine-3-carboxamide], the EC30 result is “++ (“++” means between 3 uM and 10 uM)”.
Turning to `Cc1cc(C(C)(C)C)cc(C)c1Cn1nc(C(C)(C)C)cc1C(=O)NS(=O)(=O)c1ccccc1` [Compound 443, N-(benzenesulfonyl)-5-tert-butyl-2-[(4-tert-butyl-2,6-dimethyl-phenyl)methyl]pyrazole-3-carboxamide], the 30% effect concentration (EC30) entry is given as “+ (“+” means greater than 10 uM)”.
`Cc1cc(C)c(Oc2nc(C(C)(C)C)ccc2C(=O)NS(=O)(=O)c2cccc3c2ccn3C)c(C)c1` [Compound 146, 6-tert-butyl-N-(1-methylindol-4-yl)sulfonyl-2-(2,4,6-trimethylphenoxy)pyridine-3-carboxamide]: the EC30 result is “+++ (“+++” means <3 uM)”.
For `CC(C)(C)c1ccc(C(=O)NS(=O)(=O)c2cccc(N)c2)c(Oc2ccccc2)n1` [Compound 272, N-(3-aminophenyl)sulfonyl-6-tert-butyl-2-phenoxy-pyridine-3-carboxamide], the EC30 entry is “++ (“++” means between 3 uM and 10 uM)”.
As for `CC(C)Oc1ccc(-c2ccc(C(=O)NS(=O)(=O)c3cccc(N)n3)c(N3CCCC3C(C)(C)C)n2)cn1` (centres unmarked) [Compound 597, N-[(6-amino-2-pyridyl)sulfonyl]-2-(2-tert-butylpyrrolidin-1-yl)-6-(6-isopropoxy-3-pyridyl)pyridine-3-carboxamide], the EC30 result is on record as “+++ (“+++” means <3 uM)”.
For the compound `CC(C)Oc1ccc(-c2ccc(C(=O)NS(=O)(=O)c3ccc[nH]c3=O)c(N3[C@H](C)CC[C@@H]3C)n2)cn1` [Compound 770, 2-[(2S,5R)-2,5-dimethylpyrrolidin-1-yl]-6-(6-isopropoxy-3-pyridyl)-N-[(2-oxo-1H-pyridin-3-yl)sulfonyl]pyridine-3-carboxamide], the EC30 result was “++ (“++” means between 3 uM and 10 uM)”.
Take `COc1ncccc1-c1ccc(C(=O)NS(=O)(=O)c2cccc(N)n2)c(N2CC(C)CC2(C)C)n1` (centres unmarked) [Compound 526, N-[(6-amino-2-pyridyl)sulfonyl]-6-(2-methoxy-3-pyridyl)-2-(2,2,4-trimethylpyrrolidin-1-yl)pyridine-3-carboxamide]: the EC30 result is “+++ (“+++” means <3 uM)”.
Take `CC1CC(C)N(c2nc(-c3ccc(OC(C)C)nc3)ccc2C(=O)NS(=O)(=O)c2cccc(N)n2)C1` (centres unmarked) [Compound 689, N-[(6-amino-2-pyridyl)sulfonyl]-2-(2,4-dimethylpyrrolidin-1-yl)-6-(6-isopropoxy-3-pyridyl)pyridine-3-carboxamide]: the EC30 result is on record as “+++ (“+++” means <3 uM)”.
For the compound `Cc1cc(C)c(Cn2c(C(=O)NS(=O)(=O)c3ccnc(N)c3)cc3ccccc32)c(C)c1` [Compound 627, N-[(2-amino-4-pyridyl)sulfonyl]-1-[(2,4,6-trimethylphenyl)methyl]indole-2-carboxamide], the EC30 result is on record as “+ (“+” means greater than 10 uM)”.
Consider `CC(C)COc1cc(F)cc(-c2ccc(C(=O)NS(=O)(=O)c3cccc(N)n3)c(N3CCC[C@@H]3C)n2)c1` [Compound 421, N-[(6-amino-2-pyridyl)sulfonyl]-6-(3-fluoro-5-isobutoxy-phenyl)-2-[(2S)-2-methylpyrrolidin-1-yl]pyridine-3-carboxamide], for which the EC30 result was “+++ (“+++” means <3 uM)”.
For `Cc1cc(C)c(Oc2cc(C(C)(C)C)ccc2C(=O)NS(=O)(=O)c2cccc(N)c2)c(C)c1` [Compound 224, N-(3-aminophenyl)sulfonyl-4-tert-butyl-2-(2,4,6-trimethylphenoxy)benzamide], the EC30 entry is recorded as “+++ (“+++” means <3 uM)”.
With `CC(C)(C)c1ccc(C(=O)NS(=O)(=O)c2cccc(N)n2)c(C2=CCCC2)n1` [Compound 529, N-[(6-amino-2-pyridyl)sulfonyl]-6-tert-butyl-2-(cyclopenten-1-yl)pyridine-3-carboxamide], the EC30 entry is “++ (“++” means between 3 uM and 10 uM)”.
For the compound `COc1ccccc1CCn1nc(C(C)(C)C)cc1C(=O)NS(=O)(=O)c1ccccc1` [Compound 157, N-(benzenesulfonyl)-5-tert-butyl-2-[2-(2-methoxyphenyl)ethyl]pyrazole-3-carboxamide], the EC30 result is “++ (“++” means between 3 uM and 10 uM)”.
`CC(C)COc1cc(F)cc(-c2ccc(C(=O)NS(=O)(=O)c3ccn[nH]3)c(N3CCC[C@H]3c3ccccc3)n2)c1` [Compound 716, 6-(3-fluoro-5-isobutoxy-phenyl)-2-[(2S)-2-phenylpyrrolidin-1-yl]-N-(1H-pyrazol-5-ylsulfonyl)pyridine-3-carboxamide]: the EC30 entry is on record as “+++ (“+++” means <3 uM)”.

The values above are taken from patent US10758534B2 (Vertex Pharmaceuticals Incorporated, priority 2014, dated 2020).
